Experimental data taken from the supplement of paper PMC10307832.

Experiments:
Assay in all cases: relative viability (nuclei count vs DMSO), 5 days (fraction); higher = more cells survive
[1] = compound: COc1cc2ncn(-c3cc(OCc4ccccc4C(F)(F)F)c(C(N)=O)s3)c2cc1OC + C[C@@H](Oc1cc(-c2cnn(C3CCNCC3)c2)cnc1N)c1c(Cl)ccc(F)c1Cl [Crizotinib] (partner 1 µM)
Outline: (§1)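 After 5 days of treatment, lung cancer cells in 1536-well plates were fixed and stained in a single step (final 0.05% Triton X-100, 1% formaldehyde, 1 ug/ml Hoechst) and their nuclei counted on 4× images. Treatment had been applied by pin tool the day after seeding as one drug alone or as a fixed anchor-drug dose with five library-drug doses (not always all listed) in √10 steps. Relative viability is the nuclei count of treated wells divided by that of vehicle wells, and values are medians of duplicate plates.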

[2] = compound: COc1cc2ncn(-c3cc(OCc4ccccc4C(F)(F)F)c(C(N)=O)s3)c2cc1OC + O=C(CCCCCCC(=O)Nc1ccccc1)NO [Vorinostat] (partner 1 µM)
Outline: as §1

[3] = compound: COc1cc2ncn(-c3cc(OCc4ccccc4C(F)(F)F)c(C(N)=O)s3)c2cc1OC + CC1(C)CCC(c2ccc(Cl)cc2)=C(CN2CCN(c3ccc(C(=O)NS(=O)(=O)c4ccc(N[C@H](CCN5CCOCC5)CSc5ccccc5)c(S(=O)(=O)C(F)(F)F)c4)cc3)CC2)C1 [Navitoclax] (partner 0.5 µM)
Outline: as §1

[4] = compound: COc1cc2ncn(-c3cc(OCc4ccccc4C(F)(F)F)c(C(N)=O)s3)c2cc1OC + Cc1cc(Nc2cc(N3CCN(C)CC3)nc(Sc3ccc(NC(=O)C4CC4)cc3)n2)n[nH]1 [Tozasertib] (partner 0.1 µM)
Outline: as §1

Cell Line	relative viability ([1]; first compound 0.05 µM)	relative viability ([1]; first compound 0.1581 µM)	relative viability ([1]; first compound 0.5 µM)	relative viability ([1]; first compound 1.581 µM)	relative viability ([1]; first compound 5 µM)	relative viability ([2]; first compound 0.05 µM)	relative viability ([2]; first compound 0.1581 µM)	relative viability ([2]; first compound 0.5 µM)	relative viability ([2]; first compound 1.581 µM)	relative viability ([2]; first compound 5 µM)	relative viability ([3]; first compound 0.05 µM)	relative viability ([3]; first compound 0.1581 µM)	relative viability ([3]; first compound 0.5 µM)	relative viability ([3]; first compound 1.581 µM)	relative viability ([3]; first compound 5 µM)	relative viability ([4]; first compound 0.05 µM)	relative viability ([4]; first compound 0.1581 µM)	relative viability ([4]; first compound 0.5 µM)	relative viability ([4]; first compound 1.581 µM)	relative viability ([4]; first compound 5 µM)
NCI-H3122	0.245	0.288	0.23	0.186	0.173	1	0.596	0.357	0.13	0.13	1.05	1.01	0.212	0.189	0.202	0.359	0.392	0.211	0.286	0.284
NCI-H1651	0.9	0.84	0.775	0.631	0.332	0.504	0.51	0.309	0.164	0.324	1.12	1.24	0.835	0.0858	0.0692	0.89	0.706	0.314	0.182	0.155
PC-14	0.83	0.828	0.564		0.411	0.662	0.655	0.141	0.0309	0.0197	1.03	0.97	0.407	0.151	0.273	0.649	0.715	0.525	0.163	0.354
NCI-H647	1.01	0.788	0.224	0.113	0.108	0.326	0.489	0.113	0.0523	0.0497	1.17	1.08	0.245	0.0619	0.0475	0.0011	0.324	0.218	0.125	0.104
SW 1573	0.786	0.859	0.514	0.134	0.293	0.834	0.691	0.219	0.142	0.0957	1.06	1.09	0.466	0.115	0.0609	0.154	0.179	0.192	0.174	0.139
NCI-H441	0.634	0.617	0.287	0.152	0.218	0.446	0.827	0.195	0.174	0.19	0.623	0.405	0.233	0.151	0.164	0.71	0.481	0.232	0.236	0.336
SK-MES-1	0.971	0.861	0.627		0.476	1.06	1.01	0.212	0.174	0.147	1.14	1.25	0.519	0.119	0.127	0.586	0.631	0.241	0.174	0.195
NCI-H1355	1.08	1.03	0.768	0.258	0.157	0.592	0.624	0.457	0.154	0.13	1.04	0.914	0.536	0.177	0.136	0.515	0.635	0.302	0.202	0.135
UMC-11	0.627	0.484	0.141	0.0823	0.102	0.283	0.22	0.136	0.131	0.104	0.312	0.269	0.113	0.0962	0.094	0.194	0.192	0.193	0.278	0.253
NCI-H2347	0.58	0.736	0.603	0.537	0.385	0.551	0.658	0.407	0.445	0.302	0.78	1.01	0.566	0.38	0.579	0.464	0.622	0.264	0.372	0.363
LCLC-97TM1	0.419	0.331	0.165	0.152	0.145	0.803	0.822	0.0658	0.0665	0.0652	0.4	0.502	0.307	0.141	0.0841	0.254	0.246	0.148	0.17	0.162
EMC-BAC-2	0.893	0.855	0.789	0.439	0.154	0.899	0.535	0.305	0.223	0.158	1.2	1.14	1.07	0.766	0.178	0.332	0.314	0.223	0.215	0.245
NCI-H1975	1.04	0.913	0.462	0.212	0.2	0.501	0.631	0.272	0.166	0.134	0.88	1.01	0.529	0.168	0.174	0.677	0.453	0.173	0.138	0.126
BEN	0.814	0.839	0.687	0.268	0.526	0.643	0.591	0.413	0.33	0.3	0.0682	0.0597	0.0733	0.0523	0.0519	0.514	0.498	0.5	0.56	0.47
NCI-H23	0.754	0.362	0.258	0.127	0.121	0.519	0.284	0.0883	0.121	0.0755	0.913	0.773	0.284	0.157	0.103	0.349	0.269	0.218	0.166	0.13
NCI-H520	0.984	0.513	0.19	0.148	0.16	0.343	0.621	0.215	0.179	0.183	1.04	1.18	0.454	0.201	0.162	0.466	0.421	0.44	0.309	0.384
